This passage reports EC50 and CC50 results from US20230365585A1, “BENZODIAZEPINE DERIVATIVES USEFUL IN TREATING A RESPIRATORY SYNCYTIAL VIRUS INFECTION” (priority 2020, published 2023).

Structures are written as SMILES. Some results are limits rather than exact numbers.

Data set [1] deals with RSV A2. The data set can be described thus: RSV plaque reduction assay. In kind it is cell-based, RSV (RSV A2 ECACC, 0709161v). To be noted: human respiratory syncytial virus, HepG2, 48 h, Hep-G2 cells, RSV A2, 2 days; mean of at least two experiments. As to the method: Compounds were subjected to RSV plaque reduction assays according to the following protocol.
Hep-G2 cells (ECACC, 85011430) were passaged in flasks and seeded in 24-well plates in DMEM containing antibiotics and supplemented with 10% FBS. During inoculation and subsequent incubation, cells were cultured in DMEM containing 2% FBS. 100 plaque forming unit/well of RSV (RSV A2 ECACC, 0709161v) was mixed with eight serial dilutions of compound. Subsequently, 100 µL of the virus/compound mixtures was added to confluent Hep-G2 cell monolayers. The cells and virus/compound mixtures were incubated at 37° C. in a humidified 5% CO2 incubator for 2 h prior to removal of the inoculum and addition of 1 mL of overlay (DMEM containing 2% FBS and 0.8% CMC) containing compound dilutions. The cells and were incubated at 37° C. in a humidified 5% CO2 incubator for 2 days.
Cells were washed with PBS before adding 75%/25% v/v EtOH/MeOH, for 3 min. Fix ative was removed and plates were washed with PBS. A pre-titrated amount of the primary antibody was added in 200 µL PBS/2% milk powder, and plates incubated for 90 min at 37° C. The plates were washed 3 times with PBS/0.05% Tween20 before addition of rabbit anti-goat horse radish peroxidase in 200 µL PBS/2% milk powder, and incubated for 1 h at 37° C. Following three wash steps with PBS/0.05% Tween20, 200 µL ready-to-use TrueBlue was added and plates were incubated at rt for 10-15 min before washing with water. After removal of water, plates were air-dried in the dark.
(§1) Plates were scanned and analysed using the Immunospot S6 Macro analyser, which is equipped with BioSpot analysis software for counting immunostained plaques (virospots). Plaque counts were used to calculate % infection relative to the mean of the plaque count in the virus control wells for RSV. […] Plaque EC50 and cell toxicity CC50 values are a mean of at least two experiments and figures are rounded to whole units.
In general terms: In a plaque reduction assay, fewer plaques than in the control indicate reduced infectivity or spread.

A short description of data set [2]: Cell cytotoxicity CC50. In kind it is cell-based. Particulars: human; mean of at least two experiments.
Source text: as §1

A word on the EC50: it is the midpoint of the concentration-response curve. Read a high EC50 as lower potency in that assay. The term CC50 denotes the concentration at which the toxic effect on the cells reaches its halfway point. Turning to `CC(C)Nc1ccc(-c2nn3c(c2C(=O)N[C@H]2N=C(c4ccccc4)c4cccc(F)c4NC2=O)O[C@@H]2CC[C@H]3C2)cn1` (single isomer, unassigned) [Example 31-1, (1S*,8R*)-N-[(3S)-9-fluoro-2-oxo-5-phenyl-2,3-dihydro-1H-1,4-benzodiazepin-3-yl]-4-{6-[(propan-2-yl)amino]pyridin-3-yl}-7-oxa-2,3-diazatricyclo[6.2.1.02,6]undeca-3,5-diene-5-carboxamide], in data set [1], the EC50 came to 63 nM. The CC50 in data set [2] is over 25000 nM.

The compound `CC(C)Nc1ccc(-c2nn3c(c2C(=O)N[C@H]2N=C(c4ccccc4)c4cccc(F)c4NC2=O)O[C@H]2CC[C@@H]3C2)cn1` (single isomer, unassigned) [Example 31-2, (1R*,8S*)-N-[(3S)-9-fluoro-2-oxo-5-phenyl-2,3-dihydro-1H-1,4-benzodiazepin-3-yl]-4-{6-[(propan-2-yl)amino]pyridin-3-yl}-7-oxa-2,3-diazatricyclo[6.2.1.02,6]undeca-3,5-diene-5-carboxamide] displayed an EC50 in data set [1] of 94 nM. In addition, the CC50 in data set [2] was over 25000 nM.

The compound `O=C(NC1N=C(c2ccccc2)c2cccc(F)c2NC1=O)c1c(-c2ccccc2F)nn2c1OCC(N1CCOCC1)CC2` (stereo in doubt) [Example 29, 2-(2-Fluorophenyl)-6-morpholin-4-yl-N-[(3R)-9-fluoro-2-oxo-5-phenyl-1,3-dihydro-1,4-benzodiazepin-3-yl]-5,6,7,8-tetrahydropyrazolo[5,1-b][1,3]oxazepine-3-carboxamide] returned an EC50 in data set [1] of 154 nM. The compound further returned a CC50 in data set [2] of over 25000 nM.

On to `O=C(N[C@H]1N=C(c2ccccc2)c2ccccc2NC1=O)c1c(-c2ccccc2)nn2c1OCCCC2` [Example 1, N-[(3S)-2-oxo-5-phenyl-1,3-dihydro-1,4-benzodiazepin-3-yl]-2-phenyl-5,6,7,8-tetrahydropyrazolo[5,1-b][1,3]oxazepine-3-carboxamide], for which, in data set [1], the EC50 turned out to be 79 nM. This compound also came in with a CC50 in data set [2] of over 25000 nM.

`Cc1cncc(-c2nn3c(c2C(=O)N[C@H]2N=C(c4ccccc4)c4ccccc4NC2=O)OCCCC3)c1` [Example 3, 2-(5-Methylpyridin-3-yl)-N-[(3S)-2-oxo-5-phenyl-1,3-dihydro-1,4-benzodiazepin-3-yl]-5,6,7,8-tetrahydropyrazolo[5,1-b][1,3]oxazepine-3-carboxamide] had an EC50 in data set [1] of 256 nM. In data set [2], this compound displayed a CC50 of over 25000 nM.

Compound `Cc1cncc(-c2nn3c(c2C(=O)N[C@H]2N=C(c4ccccc4)c4cccc(F)c4NC2=O)OCCCC3)c1` [Example 4, N-[(3S)-9-Fluoro-2-oxo-5-phenyl-1,3-dihydro-1,4-benzodiazepin-3-yl]-2-(5-methylpyridin-3-yl)-5,6,7,8-tetrahydropyrazolo[5,1-b][1,3]oxazepine-3-carboxamide] registered a 50% effective concentration (EC50) in data set [1] of 219 nM. In addition, the CC50 in data set [2] is over 25000 nM.

Regarding `CC1(C)CCCn2nc(-c3ccccc3F)c(C(=O)N[C@H]3N=C(c4ccccc4)c4ccccc4NC3=O)c2O1` [Example 5, 2-(2-Fluorophenyl)-5,5-dimethyl-N-[(3S)-2-oxo-5-phenyl-1,3-dihydro-1,4-benzodiazepin-3-yl]-7,8-dihydro-6H-pyrazolo[5,1-b][1,3]oxazepine-3-carboxamide], in data set [1], the EC50 came out at 91 nM. Moreover, in data set [2], the CC50 was over 25000 nM.

In data set [1], `CC1(C)CCCn2nc(-c3ccccc3F)c(C(=O)N[C@H]3N=C(c4ccccc4)c4cccc(F)c4NC3=O)c2O1` [Example 6, N-[(3S)-9-Fluoro-2-oxo-5-phenyl-1,3-dihydro-1,4-benzodiazepin-3-yl]-2-(2-fluorophenyl)-5,5-dimethyl-7,8-dihydro-6H-pyrazolo[5,1-b][1,3]oxazepine-3-carboxamide] yielded an EC50 of 78 nM. Also, the CC50 in data set [2] is over 25000 nM.

For the compound `O=C(N[C@H]1N=C(c2ccccc2)c2ccccc2NC1=O)c1c(-c2ccccc2F)nn2c1OCCCC2` [Example 7, 2-(2-Fluorophenyl)-N-[(3S)-2-oxo-5-phenyl-1,3-dihydro-1,4-benzodiazepin-3-yl]-5,6,7,8-tetrahydropyrazolo[5,1-b][1,3]oxazepine-3-carboxamide], it took 52 nM to reach a half-maximal effect in data set [1] (EC50). The CC50 in data set [2] was over 25000 nM.

In data set [1], `O=C(N[C@H]1N=C(c2ccccc2)c2cccc(F)c2NC1=O)c1c(-c2ccccc2)nn2c1OCCCC2` [Example 8, N-[(3S)-9-Fluoro-2-oxo-5-phenyl-1,3-dihydro-1,4-benzodiazepin-3-yl]-2-phenyl-5,6,7,8-tetrahydropyrazolo[5,1-b][1,3]oxazepine-3-carboxamide] showed an EC50 of 59 nM. This compound returned a CC50 in data set [2] of over 16700 nM.

Turning to `O=C(N[C@H]1N=C(c2ccccc2)c2ccccc2NC1=O)c1c(-c2ccc(NC3CC3)nc2F)nn2c1OCCCC2` [Example 9, 2-[6-(Cyclopropylamino)-2-fluoropyridin-3-yl]-N-[(3S)-2-oxo-5-phenyl-1,3-dihydro-1,4-benzodiazepin-3-yl]-5,6,7,8-tetrahydropyrazolo[5,1-b][1,3]oxazepine-3-carboxamide], the EC50 in data set [1] turned out to be 24 nM. Also, the CC50 in data set [2] is over 25000 nM.

The compound `CCNc1ccc(-c2nn3c(c2C(=O)N[C@H]2N=C(c4ccccc4)c4ccccc4NC2=O)OC(C)CCC3)c(F)n1` (stereo partly drawn) [Example 10, 2-[6-(Ethylamino)-2-fluoropyridin-3-yl]-5-methyl-N-[(3S)-2-oxo-5-phenyl-1,3-dihydro-1,4-benzodiazepin-3-yl]-5,6,7,8-tetrahydropyrazolo[5,1-b][1,3]oxazepine-3-carboxamide] displayed an EC50 in data set [1] of 31 nM. This compound registered a CC50 in data set [2] of over 25000 nM.

`CCNc1ccc(-c2nn3c(c2C(=O)N[C@H]2N=C(c4ccccc4)c4cccc(F)c4NC2=O)OC(C)CCC3)c(F)n1` (stereo partly drawn) [Example 11, 2-[6-(Ethylamino)-2-fluoropyridin-3-yl]-N-[(3S)-9-fluoro-2-oxo-5-phenyl-1,3-dihydro-1,4-benzodiazepin-3-yl]-5-methyl-5,6,7,8-tetrahydropyrazolo[5,1-b][1,3]oxazepine-3-carboxamide]: the EC50 in data set [1] was found to be 18 nM. The compound further came in with a CC50 in data set [2] of over 25000 nM.

`CC(C)Nc1ccc(-c2nn3c(c2C(=O)N[C@H]2N=C(c4ccccc4)c4ccccc4NC2=O)OC(C)CCC3)c(F)n1` (stereo partly drawn) [Example 12, 2-[2-Fluoro-6-(propan-2-ylamino)pyridin-3-yl]-5-methyl-N-[(3S)-2-oxo-5-phenyl-1,3-dihydro-1,4-benzodiazepin-3-yl]-5,6,7,8-tetrahydropyrazolo[5,1-b][1,3]oxazepine-3-carboxamide] returned an EC50 in data set [1] of 34 nM. For the same compound, the CC50 in data set [2] is over 25000 nM.

`CC(C)Nc1ccc(-c2nn3c(c2C(=O)N[C@H]2N=C(c4ccccc4)c4cccc(F)c4NC2=O)OC(C)CCC3)c(F)n1` (stereo partly drawn) [Example 13, N-[(3S)-9-fluoro-2-oxo-5-phenyl-1,3-dihydro-1,4-benzodiazepin-3-yl]-2-[2-fluoro-6-(propan-2-ylamino)pyridin-3-yl]-5-methyl-5,6,7,8-tetrahydropyrazolo[5,1-b][1,3]oxazepine-3-carboxamide]: the EC50 in data set [1] is 34 nM. Moreover, the CC50 in data set [2] is over 25000 nM.

On to `CC1CCCOc2c(C(=O)N[C@H]3N=C(c4ccccc4)c4ccccc4NC3=O)c(-c3ccccc3F)nn21` (stereo partly drawn) [Example 14, 2-(2-Fluorophenyl)-8-methyl-N-[(3S)-2-oxo-5-phenyl-1,3-dihydro-1,4-benzodiazepin-3-yl]-5,6,7,8-tetrahydropyrazolo[5,1-b][1,3]oxazepine-3-carboxamide], for which the midpoint of the response in data set [1], the EC50, lay at 67 nM. Further, in data set [2], the CC50 is over 25000 nM.

For `CC1CCCOc2c(C(=O)N[C@H]3N=C(c4ccccc4)c4cccc(F)c4NC3=O)c(-c3ccccc3F)nn21` (stereo partly drawn) [Example 15, N-[(3S)-9-fluoro-2-oxo-5-phenyl-1,3-dihydro-1,4-benzodiazepin-3-yl]-2-(2-fluorophenyl)-8-methyl-5,6,7,8-tetrahydropyrazolo[5,1-b][1,3]oxazepine-3-carboxamide], in data set [1], the EC50 amounted to 64 nM. The same compound displayed a CC50 in data set [2] of over 25000 nM.

As for `CC1CCCn2nc(-c3ccc(F)cc3F)c(C(=O)N[C@H]3N=C(c4ccccc4)c4cccc(F)c4NC3=O)c2O1` (stereo partly drawn) [Example 17, 2-(2,4-Difluorophenyl)-N-[(3S)-9-fluoro-2-oxo-5-phenyl-1,3-dihydro-1,4-benzodiazepin-3-yl]-5-methyl-5,6,7,8-tetrahydropyrazolo[5,1-b][1,3]oxazepine-3-carboxamide], the concentration giving a half-maximal response (EC50) in data set [1] was determined as 27 nM. The compound also returned a CC50 in data set [2] of over 25000 nM.

In turn, `CC1CCCn2nc(-c3ccccc3F)c(C(=O)N[C@H]3N=C(c4ccccc4)c4ccccc4NC3=O)c2O1` (stereo partly drawn) [Example 18, 2-(2-Fluorophenyl)-5-methyl-N-[(3S)-2-oxo-5-phenyl-1,3-dihydro-1,4-benzodiazepin-3-yl]-5,6,7,8-tetrahydropyrazolo[5,1-b][1,3]oxazepine-3-carboxamide] returned an EC50 in data set [1] of 37 nM. Besides, the CC50 in data set [2] is over 25000 nM.
